These results are taken from article PMC12744750 (Plant Communications, 2025).

The test system of one data set is pls mutant primary root. Put plainly: Root length of pls mutant under exogenous copper. Type of data set: in vivo, Arabidopsis thaliana. To be noted: 0-50 μM CuSO4, 12 days, n = 18. The source says: (§1) proPLS::PLS:GFP comprises a 1.5-kb PLS promoter sequence ([Casson et al., 2002]) fused to the PLS open reading frame in pMDC107 (obtained from Prof. P.J. Hussey, Durham University) as a C-terminal GFP translational fusion. The PLS ORF with its 1.5-kb promoter was amplified from the TOPO 2.1 vector, which contained the PLS gene sequence with promoter ([Casson et al., 2002]); the primers used for cloning are listed in supplemental Table 9. pls mutant plants were transformed using the method of [Clough and Bent (1998)]. proPLS::GFP plants were generated using the 1.5-kb PLS promoter ([Casson et al., 2002]) fused to GFP in a wild-type background. p35S::GFP seedlings were obtained from Dr. Piers Hemsley, Durham University. […] Seedlings were scanned to create a digital image, and root lengths of the seedlings were measured using ImageJ. […]
Root length (n = 18 from samples grown on 3 independent plates) was measured after 12 days using ImageJ. […]

Another data set has as its system ETR1:HA. Put plainly: Co-immunoprecipitation of PLS:GFP and ETR1:HA in N. benthamiana leaves. Type of data set: binding, Arabidopsis. As to conditions: Co-IP, western blotting, 3 days after infiltration. The source says: To investigate the interaction between the PLS peptide and the ethylene receptor ETR1, two DNA constructs were created by Gateway cloning. The […] PLS gene (without the stop codon) was inserted into the pEarlyGate103 (pEG103) destination vector, which contained the pro35S promoter and a C-terminal GFP tag, to produce a vector containing pro35S::PLS:GFP DNA. The ETR1 cDNA was inserted into the pEarlyGate301 (pEG301) vector to create a pro35S::ETR1:HA construct to express an ETR1 protein with a C-terminal HA tag. pro35S::GFP was used as a control. The primers used to clone ETR1 and PLS are found in supplemental Table 9.
Constructs were transiently expressed in N. benthamiana (tobacco) leaves as described previously ([Voinnet et al., 2003]). Experiments were replicated up to five times. Competent Agrobacterium tumefaciens GV3101 cells were transformed with the desired plasmid containing the gene of interest and injected with a syringe. The plants were approximately 7–10 weeks old; the chosen leaves were healthy and 3–6 cm in length, and 3 to 4 leaves were infiltrated with each construct. […]
SDS–PAGE was used to separate protein fragments. The complexed proteins from the pulldown assay were analyzed on 10%–12% acrylamide gels. […] The horseradish peroxidase conjugated to the secondary antibody was detected using X-ray film. […]

A further data set concerns pls mutant. Put plainly: Complementation of pls mutant by proPLS::PLS:GFP transgene. Type of data set: in vivo, Arabidopsis thaliana. As to conditions: single-copy proPLS::PLS:GFP in pls background.
Source text: as §1, with “University. Seedlings of Arabidopsis thaliana ecotype C24 or Col-0, pls mutants, and transgenic PLS overexpressers, all from lab stocks, were grown on solid sterile half-strength (2.2 g/l) Murashige and Skoog medium (Sigma-Aldrich) containing 10 g/l sucrose (half-strength [½] MS10 medium) solidified with 2.5 g/l Phytagel (Sigma-Aldrich) in 90-mm Petri dishes (Sarstedt, Leicester, UK) at 21°C under a 16-h photoperiod as described previously ([Casson et al., 2002]; [Chilley et al., 2006]).” for “University.”

Data set [1] relates to root epidermal cells, endomembrane markers. Put plainly: Subcellular localization by confocal microscopy. In kind it is cell-based, Arabidopsis.
Source text: as §1
CSLM images for propidium iodide and GFP were obtained using a Leica SP5 TCS confocal microscope as described previously ([Rowe et al., 2016]). proPLS::PLS:GFP, proPLS::GFP, and pro35S::GFP seedlings were grown for 7 days on Phytagel ½ MS10 medium before ∼25 mm of the root tip was removed and mounted in dH2O prior to imaging. […] For standard photomultiplier tubes, a laser power of 21% and a smart gain of 800–1000 mV were used, depending on the intensity of the fluorescence. […]

Ends that are not written are not given here.

With copper, the “copper hypersensitivity of pls mutant” value in the data set with pls mutant primary root is reported as “not copper hypersensitive”.
“PLS:GFP: fusion protein of PLS with C-terminal GFP (MKPRLCFNFRRRSISPCYISISYLLVAKLFKLFKIH-{GFP}; cysteine pairing not given here)”: in the data set on ETR1:HA, the “binding of ETR1:HA” value is recorded as “ETR1:HA bound to PLS:GFP”. The “transformants fully complementing pls mutant” value in the data set with pls mutant was “four”. In addition, in data set [1] (proPLS::PLS:GFP plants), the “co-localization with RFP:HDEL (ER lumen)” value was “co-localized with the ER lumen–targeted red fluorescent protein RFP:HDEL”. In data set [1] (proPLS::PLS:GFP stably transformed Arabidopsis), the “co-localization with ER Tracker Red” value is given as “co-localized with the ER marker dye ER-Tracker Red”.
